Measured values published in patent publication US9012471B2, “Glucose metabolism modulating compounds” (The Trustees of Columbia University in the City of New York, priority 2008, dated 2015).

Key:
Lewis rats [1] = assay: Intraperitoneal glucose tolerance test (IPGTT), blood glucose; assay type: in vivo, rat; settings: for hypoglycemic activity in IPGTT (improvement of glucose tolerance): 2 mg/kg i.v., Lewis rats; for decrease of AUC IPGTT: 2 mg/kg i.v. 30 minutes before glucose 2 g/kg I.P.
Experimental: Rats were handled daily to minimize nonspecific stress for more than 7 days before the experiments began. In most experiments, it was necessary to measure blood glucose in fasting animals. For these groups, food was removed at the beginning of the light cycle, 6 hours before glucose levels were tested.
Sixty minutes prior to intraperitoneal glucose tolerance testing (IPGTT), anesthesia of male Lewis rats was induced with isoflurane (3-4% in oxygen) and maintained with 1-2% isoflurane in oxygen.
Anaesthetized rats were administered TBZ at the indicated dose by intravenous (i.v.) injection using the penile vein. […] Control rats received injections of vehicle alone (10% DMSO in Saline).
(§1) Animals were fully recovered for at least 30 minutes before receiving IPGTT. In specified experiments, L-DOPA was injected interperitoneal (I.P.) at the specified dose at the initiation of IPGTT. Abnormal glucose tolerance was induced by a single I.P. injection of streptozotocin (STZ) (Sigma Aldrich, St. Louis, Mo.) (50 mg/kg) to animals that had been fasted 4 hours to enhance the efficacy of STZ.
(§2) Blood samples were collected between 12:00 noon and 2:00 p.m. from a superficial blood vessel in the tails of the rats following 6 hours of fasting. The fasting blood glucose (BG) levels of the rats were measured using an Accu-Check blood glucose monitoring system (Roche Diagnostics, Sommerville, N.J.). IPGTT was performed in 6-hour fasting anaesthetized animals as previously described (Weksler-Zangen, et al. 2001). Briefly, after baseline BG measurements, animals received an I.P. injection of 2 grams of glucose/kg body weight. To minimize stress during the procedure, rats were handled by the same operator during acclimatization and later during weighing and IPGTT. Blood samples (50 μl or 150 μl) were collected at baseline and then again 15, 30, 60, 90, and 120 minutes following I.P. injection of glucose. Blood glucose concentrations were measured immediately on these samples and the remainder processed. Plasma was immediately separated by centrifugation at 3,000×g for 15 minutes and then stored at −80° C. until analysis.
(§3) Insulin and glucagon concentration measurements in rat plasma were performed by ELISA as per the manufacturer's instructions using kits from Linco Research Inc. (St. Charles, Mich.) and Alpco Diagnostics (Salem, N.H.), respectively. To validate the test, saline injections were performed by the same method. […] The area under the insulin, glucagon and IPGTT glucose concentration×time curve (AUC IPGTT) was calculated by the trapezoidal rule.

purified rat islets = assay: Static glucose stimulated insulin secretion in purified islets; assay type: cell-based; settings: 100 nM DTBZ
Experimental: Rat pancreas digestion, islet isolations, and static insulin secretion assays were performed as previously described (Niswender et al. 2005; Sweet, et al. 2004; Sweet and Gilbert 2006). Purified islets were cultured in RPMI 1640 culture media with 10% fetal bovine serum at 37° C. in humidified air (5% CO2) for 18 to 24 hours. Assessment of insulin secretion in static media was carried out as follows. Islets were handpicked twice into a Petri dishes containing Krebs-Ringer bicarbonate (KRB) buffer (with 3 mM glucose and 0.1% BSA) and pre-incubated for 60 minutes (37° C. and 5% CO2). Subsequently, batches of 100 islets (in quadruplicate) were transferred into 96-well plates containing 200 μl of KRB with either 3 or 20 mM glucose, with or without 100 nM DTBZ and incubated for 60 minutes. The supernatant was removed and the insulin was measured using ELISA (ALPCO, Windham, N.H.).

DPP-IV = biological target: T1, DPP-IV (Homo sapiens, UniProt P27487); assay: DPP profiling service (BPS Bioscience), in vitro; assay type: biochemical; settings: concentrations up to 10 μM
T1 construct: purchased BPS Bioscience, Inc. (San Diego, Calif.)
T1 sequence (P27487 whole entry, species assumed): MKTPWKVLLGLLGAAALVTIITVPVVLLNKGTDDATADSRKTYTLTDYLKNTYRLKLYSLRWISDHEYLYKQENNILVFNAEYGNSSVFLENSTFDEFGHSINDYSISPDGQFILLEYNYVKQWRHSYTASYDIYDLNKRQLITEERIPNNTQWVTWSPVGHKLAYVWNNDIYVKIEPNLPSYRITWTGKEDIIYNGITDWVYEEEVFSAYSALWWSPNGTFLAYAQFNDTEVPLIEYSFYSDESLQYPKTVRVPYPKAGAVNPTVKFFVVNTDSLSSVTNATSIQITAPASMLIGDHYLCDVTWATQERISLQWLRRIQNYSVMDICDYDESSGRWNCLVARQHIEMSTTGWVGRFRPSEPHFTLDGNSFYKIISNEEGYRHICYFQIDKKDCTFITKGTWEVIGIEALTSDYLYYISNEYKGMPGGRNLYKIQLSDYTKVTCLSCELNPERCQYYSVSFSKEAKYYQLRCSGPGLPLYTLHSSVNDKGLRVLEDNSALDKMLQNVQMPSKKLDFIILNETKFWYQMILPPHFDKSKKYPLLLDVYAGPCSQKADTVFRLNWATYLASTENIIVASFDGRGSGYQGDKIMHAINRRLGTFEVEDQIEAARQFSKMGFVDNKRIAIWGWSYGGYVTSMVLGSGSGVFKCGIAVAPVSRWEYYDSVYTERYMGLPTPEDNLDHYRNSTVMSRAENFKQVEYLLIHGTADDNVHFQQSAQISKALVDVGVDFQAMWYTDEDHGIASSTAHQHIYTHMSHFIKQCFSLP
Experimental: The effect of DTBZ on DDP-IV was determined using the DPP profiling service from BPS Bioscience, Inc. (San Diego, Calif.).

VMAT2 [2] = biological target: T2, VMAT2 (Rattus norvegicus, UniProt Q01827); assay: Fake Fluorescent Neurotransmitter (FFN) uptake high throughput assay in INS 832/13 cells; assay type: cell-based; settings: for block of FFN uptake/transport: one hour preincubation
T2 construct: endogenous in cells; host or cells: rat INS 832/13 insulinoma cells
T2 sequence (Q01827 whole entry): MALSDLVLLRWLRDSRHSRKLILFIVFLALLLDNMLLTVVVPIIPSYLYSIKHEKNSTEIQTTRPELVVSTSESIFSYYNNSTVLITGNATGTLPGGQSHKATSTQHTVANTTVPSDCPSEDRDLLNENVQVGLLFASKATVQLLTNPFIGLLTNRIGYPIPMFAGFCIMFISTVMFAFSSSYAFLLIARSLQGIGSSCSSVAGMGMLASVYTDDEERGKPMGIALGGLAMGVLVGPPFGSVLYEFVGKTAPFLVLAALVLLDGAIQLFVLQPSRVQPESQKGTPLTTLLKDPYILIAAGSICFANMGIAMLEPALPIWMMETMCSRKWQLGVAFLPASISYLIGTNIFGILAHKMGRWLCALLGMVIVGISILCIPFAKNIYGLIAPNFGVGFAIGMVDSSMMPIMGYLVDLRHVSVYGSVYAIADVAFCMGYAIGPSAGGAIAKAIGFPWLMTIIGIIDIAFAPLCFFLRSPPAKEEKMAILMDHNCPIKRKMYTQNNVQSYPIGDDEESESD
Source text: A high throughput (HTP) assay was developed to screen for compounds that interact with, e.g., bind to, VMAT2. The HTP exploits a class of compounds called Fake Fluorescent Neurotransmitters (FFN) that share the following characteristics a) low molecular weight and sufficiently hydrophilic to be water soluble; b) in aqueous buffer (pH 7), the excitation maxima is around 380-406 nm and the emission maxima is around 501 nm; and c) similar Kd for VMAT2 as dopamine. To validate the use of these compounds in beta cell lines (positive for VMAT2) the following set of experiments were performed.
The rat INS 832/13 cell line was selected because it secretes insulin in response to glucose concentrations in the physiological range and can be shown to contain VMAT2 by PCR. […] INS cells were grown on cover slips in normal media, then pretreated with and without DTBZ in low glucose media for one hour and then loaded with FFN (GH206). The distribution of fluorescent dye was then examined under a fluorescent microscope. The FFN distributes itself intracellularly in a punctate pattern similar, if not identical, to insulin containing granules of this cell line (data not shown). […] For better quantitation of the fluorescent signal, the cells were grown in […] and the same experiment substantially repeated. Briefly, cells were grown to confluence in complete high glucose media, then incubated for one hour in low glucose media. DTBZ was then added to the wells for one hour, followed with a second one hour incubation with FFN. Wells were then washed and the fluorescent signal (380 exc, 512 emm) measured in a multiwell fluorometer (Synergy HT Multi-Mode Microplate Reader).

rats = settings: cited from earlier work
[3] = rats; cited from earlier work
VMAT1 = biological target: T3, VMAT1 (Homo sapiens, UniProt P54219); settings: cited from earlier work
T3 sequence (P54219 1-525): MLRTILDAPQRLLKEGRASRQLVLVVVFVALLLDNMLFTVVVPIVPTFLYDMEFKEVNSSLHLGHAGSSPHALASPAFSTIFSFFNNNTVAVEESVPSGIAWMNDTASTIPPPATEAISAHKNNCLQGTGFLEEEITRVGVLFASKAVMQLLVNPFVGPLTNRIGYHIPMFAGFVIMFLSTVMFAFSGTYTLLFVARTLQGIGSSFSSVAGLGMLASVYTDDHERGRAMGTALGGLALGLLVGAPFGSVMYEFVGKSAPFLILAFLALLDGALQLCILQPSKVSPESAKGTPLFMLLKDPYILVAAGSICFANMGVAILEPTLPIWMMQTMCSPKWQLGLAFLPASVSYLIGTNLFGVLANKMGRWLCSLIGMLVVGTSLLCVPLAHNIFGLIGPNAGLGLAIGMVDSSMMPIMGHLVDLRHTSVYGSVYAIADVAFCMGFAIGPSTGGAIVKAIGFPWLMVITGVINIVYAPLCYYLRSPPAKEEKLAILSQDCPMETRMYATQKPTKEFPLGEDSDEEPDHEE

STZ treated rats = assay: IPGTT and insulin in streptozotocin (STZ) treated rats; assay type: in vivo, rat; settings: TBZ 1.5 mg/Kg
Experimental: as §1
STZ solution was prepared fresh by dissolving it in 0.1 M citrate buffer (pH 5.5) and terminally sterile filtered. Control Lewis age and weight matched rats received a 0.5 ml/kg citrate vehicle alone via intraperitoneal injection. […]
Blood samples were collected between 12:00 noon and 2:00 p.m. from a superficial blood vessel in the tails of the rats following 6 hours of fasting. The fasting blood glucose (BG) levels of the rats were measured using an Accu-Check blood glucose monitoring system (Roche Diagnostics, Sommerville, N.J.). […] Blood glucose concentrations were measured immediately on these samples and the remainder processed. […]
as §3, with “respectively.” for “respectively. To validate the test, saline injections were performed by the same method.”

Lewis rats [4] = assay: Dopamine content of brain and pancreas tissue by ELISA after TBZ; assay type: in vivo, rat; settings: 1.5 mg/Kg i.v., one hour after injection
Experimental: Euthanasia was performed by exsanguination of the anesthetized animal. Brain and pancreas were harvested as quickly as possible and frozen at −80° C. until use. […] The tissue extract was centrifuged at 10,000×g at 4° C. to remove debris and the total protein was estimated by reading the absorbance at 280 nm.

Lewis rats [5] = assay: Plasma insulin and glucagon during IPGTT; assay type: in vivo, rat
Experimental: as §2, with “The” for “Blood samples were collected between 12:00 noon and 2:00 p.m. from a superficial blood vessel in the tails of the rats following 6 hours of fasting. The”, “([…],” for “(Weksler-Zangen,”, “-80°” for “−80°”, “analysis. Insulin and glucagon concentration measurements in rat plasma were performed by ELISA as per the manufacturer's instructions using kits from Linco Research Inc. (St. Charles, Mich.) and Alpco Diagnostics (Salem, N.H.), respectively. To validate the test, saline injections were performed by the same method. […] The area under the insulin, glucagon and IPGTT glucose concentration×time curve (AUC IPGTT) was calculated by the trapezoidal rule.” for “analysis.”

VMAT2 [6] = biological target: VMAT2 (Homo sapiens, UniProt Q05940); settings: cited from earlier work
Sequence of VMAT2 (Homo sapiens, UniProt Q05940) (Q05940 whole entry): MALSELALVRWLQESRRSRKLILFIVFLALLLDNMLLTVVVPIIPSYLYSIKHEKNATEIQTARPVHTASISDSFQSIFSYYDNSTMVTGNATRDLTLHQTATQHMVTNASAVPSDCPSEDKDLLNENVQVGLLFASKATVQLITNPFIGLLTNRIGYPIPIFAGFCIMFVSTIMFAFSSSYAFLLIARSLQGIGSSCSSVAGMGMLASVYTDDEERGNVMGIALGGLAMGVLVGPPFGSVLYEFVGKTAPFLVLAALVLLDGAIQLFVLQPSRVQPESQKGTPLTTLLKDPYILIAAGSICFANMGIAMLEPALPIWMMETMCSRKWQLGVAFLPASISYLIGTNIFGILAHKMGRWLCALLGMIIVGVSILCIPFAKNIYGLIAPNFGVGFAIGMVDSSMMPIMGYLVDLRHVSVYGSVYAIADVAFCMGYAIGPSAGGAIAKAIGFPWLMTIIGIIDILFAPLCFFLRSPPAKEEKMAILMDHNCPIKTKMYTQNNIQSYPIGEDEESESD

VMAT2 [7] = biological target: T2, VMAT2; assay: PET displacement of [11C]DTBZ in pancreas; assay type: in vivo; settings: cold compound 2 mg/kg, 30 minutes after radioligand
Experimental: PET scans were performed on 12-14-week-old Lewis male rats. Prior to imaging, the animals were anesthetized by isoflurane inhalation. After a transmission scan of the area of interest had been acquired (used to perform attenuation correction of the emission data), the radioligand [^11C]DTBZ was administered (0.5-1.0 μCi/gm) in saline as a bolus injection via the penile vein. PET scans of the animals were acquired dynamically to 90 minutes post-injection on a Concorde microPET-R4 (CTI Molecular Imaging (Knoxville, Tenn.)). The scanner provided a 100×80 mm field of view with a reconstructed resolution of 2.25 mm in the central 40 mm of the field of view.
At thirty minutes post injection of [^11C]DTBZ, animals received a second injection via the penile vein of cold analog. PET data were processed using an attenuation correction matrix obtained by transmission scans and images were reconstructed using Fourier rebinning, followed by two-dimensional, filtered back projection using microPET manager software (CTI Molecular Imaging (Knoxville, Tenn.)).
To test whether the strong hypoglycemic effect of compound 8 is conferred by binding to VMAT2 in beta cells, a PET study in rats was performed. The animals were treated with radiolabeled DTBZ, and the uptake of [^11C]DTBZ in pancreas was monitored by PET scan in the presence of an excess of compound 8.

COc1ccc(C2CC(O)C(CC(C)C)CN2)cc1OC (racemic) [compound 1]
hypoglycemic activity in IPGTT (improvement of glucose tolerance) (Lewis rats [1]): less potent than TBZ

COc1cc2c(cc1OC)[C@H]1C[C@@H](O)[C@H](CC(C)C)CN1CC2 [DTBZ, dihydrotetrabenazine]
enhancement of glucose stimulated insulin secretion (purified rat islets; high glucose (20 mM), 60 minutes): two to three fold
increase in insulin secretion (purified rat islets; low glucose (3 mM)): not statistically significant
effect on DPP-IV (DPP-IV): no effect
block of FFN uptake/transport (VMAT2 [2]): able to block uptake of FFN

N[C@@H](Cc1ccc(O)c(O)c1)C(=O)O [L-DOPA, L-3,4-dihydroxyphenylalanine]
effect on TBZ-lowered AUC IPGTT (Lewis rats [1]; L-DOPA 6.0 mg/Kg I.P., one hour after TBZ, concurrent with glucose): reverse the effects of TBZ

COc1cc2c(cc1OC)C1CC(=O)C(CC(C)C)CN1CC2 (stereo not drawn) [TBZ, tetrabenazine]
reduction of dopamine levels in the brain (rats): 40%
reduction of norepinephrine levels in the brain (rats): 41%
reduction of serotonin levels in the brain (rats): 44%
plasma elimination half life, t1/2 [3]: 2 h
reduction of glucose excursion (AUC IPGTT) (Lewis rats [1]; 2.25 μg/gm body weight i.v., older male Lewis rats >11 weeks): approximately 35%
decrease of AUC IPGTT (Lewis rats [1]): 26%
baseline fasting glucose concentration versus control animals (Lewis rats [1]; about 1 hour after TBZ, before glucose challenge): no reproducible differences
AUC IPGTT (Lewis rats [1]; chronic administration, approximately 0.1 mg/Kg body weight for five days): suppressed the AUC IPGTT in a fashion similar to the single high dose
AUC IPGTT (Lewis rats [1]; doses higher than 5.0 mg/Kg): increasingly variable, often surpassing that of control levels
glucose tolerance enhancing effect (AUC IPGTT) (Lewis rats [1]; doses lower than 0.3 mg/Kg): undetectable
reduced affinity towards VMAT1 versus VMAT2 (VMAT1): more than 10,000 fold
AUC IPGTT (STZ treated rats; STZ treated rats): decreased
increase of AUC insulin (STZ treated rats; STZ treated rats which maintained glucose dependant insulin secretion): 50%-80%
dopamine content of brain (Lewis rats [4]): significantly reduced
AUC plasma glucagon (Lewis rats [5]; i.v. TBZ and glucose challenge): lower relative to controls
dissociation constant (VMAT2 [6]): nanomolar range

COc1ccc(C2CC(OCC(C)C)=CC(=O)N2)cc1OC (stereo not drawn) [compound 8]
decrease of AUC IPGTT (Lewis rats [1]): 45%
hypoglycemic activity in IPGTT (improvement of glucose tolerance) (Lewis rats [1]): potent hypoglycemic effect
binding to VMAT2, displacement of [11C]DTBZ in the endocrine pancreas, relative to DTBZ (VMAT2 [7]): at least a weak binding
effect on DPP-IV (DPP-IV): negative
activity on a per mole basis in blocking FFN transport (VMAT2 [2]): less than that of DTBZ
block of FFN uptake/transport (VMAT2 [2]): able to block FFN transport into INS vesicles

COC1=CC(=O)N2CCc3cc(OC)c(OC)cc3C2C1 (stereo not drawn) [compound 15]
hypoglycemic activity in IPGTT (improvement of glucose tolerance) (Lewis rats [1]): active but less potent

NCCc1ccc(O)c(O)c1 [dopamine]
effect on insulin enhancement by TBZ (Lewis rats [5]; dopamine i.v. at the same time as glucose): partially blocked the insulin enhancing effects of TBZ
